Measurements as given in ChEMBL document CHEMBL5257126, “Moderately lipophilic 2-(Het)aryl-6-dithioacetals, 2-phenyl-1,4-benzodioxane-6-dithioacetals and 2-phenylbenzofuran-5-dithioacetals: Synthesis and primary evaluation as potential antidiabetic AMPK-activators” (Bioorg Med Chem, 2023).

Tests used:
Assay type in all cases: functional
[1] = system: L6; assay: Induction of glucose uptake in rat L6 cells assessed as fold increase by measuring 2-NBDG uptake at 25 uM preincubated in high glucose medium for 48 hrs followed by compound addition and measured after 24 hrs
[2] = system: L6; assay: Induction of glucose uptake in rat L6 cells assessed as fold increase by measuring 2-NBDG uptake at 2.5 uM preincubated in high glucose medium for 48 hrs followed by compound addition and measured after 24 hrs
[3] = system: L6; assay: Induction of glucose uptake in rat L6 cells assessed as fold increase by measuring 2-NBDG uptake at 0.25 uM preincubated in high glucose medium for 48 hrs followed by compound addition and measured after 24 hrs

c1ccc(C2COc3cc(C4SCCCCS4)ccc3O2)cc1 (stereo not given)
fold change (FC) [1]: 1.1 | fold change (FC) [2]: 1 | fold change (FC) [3]: 1

c1ccc(C2COc3cc(C4SCCCS4)ccc3O2)cc1 (stereo not given)
fold change (FC) [1]: 1.2 | fold change (FC) [2]: 1 | fold change (FC) [3]: 1

O[C@H]1CS[C@H](c2ccc3c(c2)CCC(c2ccccc2)O3)SC1 (stereo not given in full)
fold change (FC) [1]: 1 | fold change (FC) [2]: 0.9 | fold change (FC) [3]: 1.1

c1ccc(C2CCc3cc(C4NCCS4)ccc3O2)cc1 (stereo not given)
fold change (FC) [1]: 1.2 | fold change (FC) [2]: 0.9 | fold change (FC) [3]: 1

COc1cccc(C2CCc3cc(C4SCCCS4)ccc3O2)c1 (stereo not given)
fold change (FC) [1]: 1.5 | fold change (FC) [2]: 1 | fold change (FC) [3]: 1

OCCSC(SCCO)c1ccc2c(c1)CCC(c1ccco1)O2 (stereo not given)
fold change (FC) [1]: 1.5 | fold change (FC) [2]: 1 | fold change (FC) [3]: 1.1

O[C@H]1CS[C@@H](c2ccc3c(c2)CCC(c2ccccc2)O3)SC1 (stereo not given in full)
fold change (FC) [1]: 1 | fold change (FC) [2]: 1 | fold change (FC) [3]: 1.1

c1ccc(-c2cc3cc(C4SCCCS4)ccc3o2)cc1
fold change (FC) [1]: 1.2 | fold change (FC) [2]: 1 | fold change (FC) [3]: 1

COc1ccc(C2CCc3cc(C4SCCCCS4)ccc3O2)cc1 (stereo not given)
fold change (FC) [1]: 2.2 | fold change (FC) [2]: 1.9 | fold change (FC) [3]: 1.4

OCCOCCSC(SCCOCCO)c1ccc2c(c1)CCC(c1ccccc1)O2 (stereo not given)
fold change (FC) [1]: 1.1 | fold change (FC) [2]: 1.1 | fold change (FC) [3]: 1
